{"source": "patent US20170182090A1", "about": "“Sulfate Salt Solution Laxative Compositions and Methods of Use Thereof” (Braintree Laboratories, Inc., priority 2014, published 2017)", "key": {"[1]": {"tested_on": "constipation", "settings": "in vivo; cited from earlier work"}, "[2]": {"tested_on": "normal volunteers", "experiment": "Single dose laxative study in normal volunteers (Example 1, Study 008-211): stool output, BM frequency, time to first BM, stool water", "type": "in vivo, human", "procedure": "This single center study evaluated sulfate salt compositions containing 43.8 millimoles (mmol) sulfate salts (4.2 g total sulfate) or 80 mmol sulfate salts (7.7 g total sulfate) as compared to 10 mg bisacodyl for efficacy to induce a rapid, controlled bowel movement without significant gains or losses of electrolytes. Normal volunteers were given a single dose of laxative in an in-patient setting during which all stool and urine were collected for 24 hours after laxative administration. Efficacy was based on total stool output, bowel movement frequency and time to first bowel movement (BM). A time to first BM of less than three hours was considered ideal. Stool was analyzed to determine the gain or loss of electrolytes. Safety was assessed through the collection of adverse event data and analysis of urine electrolyte composition.\nNormal male and female volunteers in this single center study were enrolled to receive a single dose of a sulfate laxative formulations or bisacodyl in an open-label, non-randomized fashion.\nEnrolled study subjects received a single dose of a formulation of sulfate salts (dissolved in 120 ml water) and separately, 10 mg bisacodyl, in an open-label, non-randomized fashion. The sulfate preparations, shown below, were compounded by the investigator.\nAfter an eight hour (overnight) fast, study subjects ingested either a single dose of sulfate laxative (containing sodium sulfate and potassium sulfate) or, on a different day, bisacodyl. Sulfate was initially given with a 1:1 molar ratio sodium to potassium at a dose of 43.8 mmole sulfate salts (4.2 g total sulfate) sulfate to three study subjects. The dose was later increased to 80 mmole sulfate salts (7.7 g total sulfate) in one study subject. The 80 mmol sulfate salt formulation was then changed to a 3:1 sodium to potassium molar ratio for the final five study subjects. Bisacodyl was given at a dose of 10 mg.\nStool and urine were collected for 24 hours following laxative ingestion.\n(§1) Efficacy was assessed via quantitative measurements of stool weight, bowel movement frequency and time to first BM. All stools were collected, weighed and subsequently analyzed for water and electrolyte composition."}, "[3]": {"tested_on": "normal volunteers", "experiment": "Stool electrolyte output and balance, Example 1", "type": "in vivo, human", "settings": "bisacodyl 10 mg", "procedure": "as §1\n(§2) Laxative related adverse events were assessed via subject completion of a study specific questionnaire. Specifically, subjects rated their experience with respect to abdominal cramping, abdominal bloating, abdominal pain, gas, nausea, and vomiting. Stool was analyzed for water and electrolyte composition.\nStools collected from study subjects were analyzed for sodium, potassium and sulfate. The data for the 80 mmol sulfate salt formulation and 10 mg bisacodyl are discussed here. The total electrolyte content of the stool was compared with the total electrolyte quantity ingested from the test preparations.\nThe 80 mmol sulfate salt formulation was administered initially as a formula with a 1:1 sodium to potassium ratio on a molar basis (1 study subject; DC). Based on the stool analysis results from this subject (see below) the formulation was modified to a 3:1 sodium to potassium ratio for the remaining 5 study subjects. Stool electrolyte balance results are summarized below in Tables 6 and 7."}, "[4]": {"tested_on": "normal volunteers", "experiment": "Adverse events and symptoms, Example 1", "type": "in vivo, human", "settings": "bisacodyl 10 mg single dose", "procedure": "as §2"}, "[5]": {"tested_on": "normal volunteers", "settings": "bisacodyl 20 mg, n=11, cited from earlier work"}, "[6]": {"settings": "bisacodyl 10 mg single dose, mean, n=7"}, "[7]": {"settings": "bisacodyl 10 mg single dose, n=7"}, "[8]": {"settings": "bisacodyl 10 mg, 24 hours following laxative ingestion"}}, "note": "Like-named read-outs stand apart in the source and are kept apart here."}
{"smiles": "CCCCC(F)(F)[C@@]1(O)CC[C@H]2[C@@H](CC(=O)[C@@H]2CCCCCCC(=O)O)O1", "note": "[Amitiza]", "values": [{"measurement": "success rate", "setting": "[1]", "result": 30, "unit": "%"}]}
{"smiles": "CC(=O)Oc1ccc(C(c2ccc(OC(C)=O)cc2)c2ccccn2)cc1", "note": "[Bisacodyl]", "values": [{"measurement": "Stool Water", "setting": "[2]; bisacodyl 10 mg single dose, mean (SD), n=7", "result": "85.8% (2.4)"}, {"measurement": "BM Frequency", "setting": "[2]; [6]", "result": "2.9 #/12 hrs"}, {"measurement": "Stool Output", "setting": "[2]; [6]", "result": 681, "unit": "g/12 hrs"}, {"measurement": "Time to first BM", "setting": "[2]; [6]", "result": 4.4, "unit": "h"}, {"measurement": "Time to first BM", "setting": "[2]; bisacodyl 10 mg single dose, mean, n=7, listed as bisacodyl", "result": "about 5 hrs"}, {"measurement": "Subjects with BM <3 hrs, number", "setting": "[2]; [7]", "result": 1}, {"measurement": "Subjects with BM <3 hrs, percent", "setting": "[2]; [7]", "result": "(14%)"}, {"measurement": "Subjects with BM <3 hrs, percent", "setting": "[2]; bisacodyl 10 mg single dose, n=7, listed as bisacodyl", "result": 14, "unit": "%"}, {"measurement": "bowel movements, average", "setting": "[2]; [8]", "result": "about 3"}, {"measurement": "stool, average", "setting": "[2]; [8]", "result": "~700", "unit": "grams"}, {"measurement": "potassium loss", "setting": "[3]", "result": "about 2 grams"}, {"measurement": "sodium losses", "setting": "[3]", "result": 1.2, "unit": "grams"}, {"measurement": "adverse events, gastrointestinal symptoms", "setting": "[4]", "result": "one bisacodyl volunteer reported severe cramping"}, {"measurement": "BM Frequency", "setting": "[5]; mean", "result": "5.4 #/12hrs"}, {"measurement": "Stool Output", "setting": "[5]; mean", "result": 757, "unit": "g/12hrs"}, {"measurement": "Time to first BM", "setting": "[5]; mean", "result": 3.2, "unit": "h"}, {"measurement": "# with BM <3 hrs, number", "setting": "[5]", "result": 5}, {"measurement": "# with BM <3 hrs, percent", "setting": "[5]", "result": "(45%)"}, {"measurement": "# with BM <3 hrs, percent", "setting": "[5]; listed as bisacodyl", "result": 45, "unit": "%"}]}
{"smiles": "C=CCN1CC[C@]23c4c5ccc(O)c4O[C@H]2[C@@H](OCCOCCOCCOCCOCCOCCOCCOC)CC[C@@]3(O)[C@H]1C5.O=C(O)C(=O)O", "note": "[Movantik]", "values": [{"measurement": "success rate", "setting": "[1]", "result": "approximately 45%"}]}
{"smiles": "C[N+]1(CC2CC2)CC[C@]23c4c5ccc(O)c4O[C@H]2C(=O)CC[C@@]3(O)[C@H]1C5", "note": "(stereo partly shown) [Relistor]", "values": [{"measurement": "success rate", "setting": "[1]", "result": 60, "unit": "%"}]}
